Assays:
female rats = test: Plasma metabolite profiling (GC-MS/LC-MS), markers for liver enzyme induction in female rats, 28-day gavage study; type: in vivo, rat; details: high dose
Protocol: (§1) A group of each 5 male and female rats was dosed once daily with the indicated compounds (see tables below) at 10 and 100 mg/kg body weight per gavage over 28 days. Additional groups of each 5 male and female animals served as controls. Before starting the treatment period, animals, which were 62-64 days old when supplied, were acclimatized to the housing and environmental conditions for 7 days. All animals of the animal population were kept under the same constant temperature (20-24±3° C.) and the same constant humidity (30-70%). Each animal of the animal population was kept in a separate cage. The animals of the animal population are fed ad libitum. The food to be used was be essentially free of chemical or microbial contaminants. Drinking water was also offered ad libitum. Accordingly, the water was be free of chemical and microbial contaminants as laid down in the European Drinking Water Directive 98/83/EG. The illumination period was 12 hours light followed by 12 hours darkness (12 hours light, from 6:00 to 18:00, and 12 hours darkness, from 18:00 to 6:00).
(§2) In the morning of day 7, 14, and 28, blood was taken from the retroorbital venous plexus from fasted anaesthetized animals. From each animal, 1 ml of blood was collected with EDTA as anticoagulant. The samples were be centrifuged for generation of plasma. All plasma samples were covered with a N2 atmosphere and then stored at—80° C. until analysis.
(§3) For mass spectrometry-based metabolite profiling analyses plasma samples were extracted and a polar and a non-polar fraction was obtained. For GC-MS analysis, the non-polar fraction was treated with methanol under acidic conditions to yield the fatty acid methyl esters. Both fractions were further derivatised with O-methyl-hydroxyamine hydrochloride and pyridine to convert oxo-groups to O-methyloximes and subsequently with a silylating agent before analysis. In LC-MS analysis, both fractions were reconstituted in appropriate solvent mixtures. HPLC was performed by gradient elution on reversed phase separation columns. For mass spectrometric detection metanomics proprietary technology was applied which allows target and high sensitivity MRM (Multiple Reaction Monitoring) profiling in parallel to a full screen analysis.
(§4) Following comprehensive analytical validation steps, the data for each analyte were normalized against data from pool samples. These samples were run in parallel through the whole process to account for process variability. The significance of treatment group values specific for sex, dose group and metabolite was determined by comparing means of the treated groups to the means of the respective untreated control groups using Student's t-test. Normalized treatment group values and their significance were fed into a database for further statistics and data mining processes.
(§5) The changes of the group of plasma metabolites being indicative for liver enzyme induction after treatment of the rats are shown in the following tables: […]

male rats = test: Plasma metabolite profiling (GC-MS/LC-MS), markers for liver enzyme induction in male rats, 28-day gavage study; type: in vivo, rat; details: high dose
Protocol: as §1, §2, §3, §4, §5

Clc1cc(Cl)c(Cl)c(Cl)c1Cl [Pentachlorobenzene]
1,2-Dioleoyl-sn-glycero-3-phosphatidyl-L-serine, change of plasma metabolite, fh7 (female rats; day 7, relative to controls): 1.28
Arachidonic acid (C20:cis-[5,8,11,14]4), change of plasma metabolite, fh7 (female rats; day 7, relative to controls): 1.27
Behenic acid (C22:0), change of plasma metabolite, fh7 (female rats; day 7, relative to controls): 1.30
Cholesterol, change of plasma metabolite, fh7 (female rats; day 7, relative to controls): 1.23
Docosahexaenoic acid (C22:cis[4,7,10,13,16,19]6), change of plasma metabolite, fh7 (female rats; day 7, relative to controls): 1.79
Dodecanol, change of plasma metabolite, fh7 (female rats; day 7, relative to controls): 1.17
Eicosanoic acid (C20:0), change of plasma metabolite, fh7 (female rats; day 7, relative to controls): 1.13
Galactose, lipid fraction, change of plasma metabolite, fh7 (female rats; day 7, relative to controls): 1.10
Glycerol, lipid fraction, change of plasma metabolite, fh7 (female rats; day 7, relative to controls): 2.38
Glycerolphosphate, lipid fraction, change of plasma metabolite, fh7 (female rats; day 7, relative to controls): 1.27
Heptadecanoic acid (C17:0), change of plasma metabolite, fh7 (female rats; day 7, relative to controls): 1.32
Lignoceric acid (C24:0), change of plasma metabolite, fh7 (female rats; day 7, relative to controls): 1.39
Linoleic acid (C18:cis[9,12]2), change of plasma metabolite, fh7 (female rats; day 7, relative to controls): 2.11
Nervonic acid (C24:1), change of plasma metabolite, fh7 (female rats; day 7, relative to controls): 0.97
Palmitic acid (C16:0), change of plasma metabolite, fh7 (female rats; day 7, relative to controls): 1.59
Phosphatidylcholine (C18:0/C18:2), change of plasma metabolite, fh7 (female rats; day 7, relative to controls): 1.14
Sphingolipids (3- and 5-Methoxysphingosine), change of plasma metabolite, fh7 (female rats; day 7, relative to controls): 1.43
Stearic acid (C18:0), change of plasma metabolite, fh7 (female rats; day 7, relative to controls): 1.30
Threonic acid, change of plasma metabolite, fh7 (female rats; day 7, relative to controls): 3.67
Tricosanoic acid (C23:0), change of plasma metabolite, fh7 (female rats; day 7, relative to controls): 1.18
gamma-Linolenic acid (C18:cis[6,9,12]3), change of plasma metabolite, fh7 (female rats; day 7, relative to controls): 1.71
myo-Inositol-2-monophosphate, lipid fraction, change of plasma metabolite, fh7 (female rats; day 7, relative to controls): 1.81
1,2-Dioleoyl-sn-glycero-3-phosphatidyl-L-serine, change of plasma metabolite, fh14 (female rats; day 14, relative to controls): 1.72
Arachidonic acid (C20:cis-[5,8,11,14]4), change of plasma metabolite, fh14 (female rats; day 14, relative to controls): 1.89
Behenic acid (C22:0), change of plasma metabolite, fh14 (female rats; day 14, relative to controls): 1.60
Cholesterol, change of plasma metabolite, fh14 (female rats; day 14, relative to controls): 1.64
Docosahexaenoic acid (C22:cis[4,7,10,13,16,19]6), change of plasma metabolite, fh14 (female rats; day 14, relative to controls): 2.49
Dodecanol, change of plasma metabolite, fh14 (female rats; day 14, relative to controls): 1.79
Eicosanoic acid (C20:0), change of plasma metabolite, fh14 (female rats; day 14, relative to controls): 2.76
Galactose, lipid fraction, change of plasma metabolite, fh14 (female rats; day 14, relative to controls): 1.28
Glycerol, lipid fraction, change of plasma metabolite, fh14 (female rats; day 14, relative to controls): 7.37
Glycerolphosphate, lipid fraction, change of plasma metabolite, fh14 (female rats; day 14, relative to controls): 1.52
Heptadecanoic acid (C17:0), change of plasma metabolite, fh14 (female rats; day 14, relative to controls): 1.89
Lignoceric acid (C24:0), change of plasma metabolite, fh14 (female rats; day 14, relative to controls): 1.60
Linoleic acid (C18:cis[9,12]2), change of plasma metabolite, fh14 (female rats; day 14, relative to controls): 5.23
Nervonic acid (C24:1), change of plasma metabolite, fh14 (female rats; day 14, relative to controls): 1.55
Palmitic acid (C16:0), change of plasma metabolite, fh14 (female rats; day 14, relative to controls): 3.46
Phosphatidylcholine (C18:0/C18:2), change of plasma metabolite, fh14 (female rats; day 14, relative to controls): 1.20
Sphingolipids (3- and 5-Methoxysphingosine), change of plasma metabolite, fh14 (female rats; day 14, relative to controls): 1.77
Stearic acid (C18:0), change of plasma metabolite, fh14 (female rats; day 14, relative to controls): 1.87
Threonic acid, change of plasma metabolite, fh14 (female rats; day 14, relative to controls): 3.63
Tricosanoic acid (C23:0), change of plasma metabolite, fh14 (female rats; day 14, relative to controls): 1.46
gamma-Linolenic acid (C18:cis[6,9,12]3), change of plasma metabolite, fh14 (female rats; day 14, relative to controls): 4.53
myo-Inositol-2-monophosphate, lipid fraction, change of plasma metabolite, fh14 (female rats; day 14, relative to controls): 3.61
1,2-Dioleoyl-sn-glycero-3-phosphatidyl-L-serine, change of plasma metabolite, fh28 (female rats; day 28, relative to controls): 1.51
Arachidonic acid (C20:cis-[5,8,11,14]4), change of plasma metabolite, fh28 (female rats; day 28, relative to controls): 1.50
Behenic acid (C22:0), change of plasma metabolite, fh28 (female rats; day 28, relative to controls): 1.41
Cholesterol, change of plasma metabolite, fh28 (female rats; day 28, relative to controls): 1.62
Docosahexaenoic acid (C22:cis[4,7,10,13,16,19]6), change of plasma metabolite, fh28 (female rats; day 28, relative to controls): 1.57
Dodecanol, change of plasma metabolite, fh28 (female rats; day 28, relative to controls): 1.40
Eicosanoic acid (C20:0), change of plasma metabolite, fh28 (female rats; day 28, relative to controls): 1.98
Galactose, lipid fraction, change of plasma metabolite, fh28 (female rats; day 28, relative to controls): 1.40
Glycerol, lipid fraction, change of plasma metabolite, fh28 (female rats; day 28, relative to controls): 2.68
Glycerolphosphate, lipid fraction, change of plasma metabolite, fh28 (female rats; day 28, relative to controls): 1.43
Heptadecanoic acid (C17:0), change of plasma metabolite, fh28 (female rats; day 28, relative to controls): 1.54
Lignoceric acid (C24:0), change of plasma metabolite, fh28 (female rats; day 28, relative to controls): 1.75
Linoleic acid (C18:cis[9,12]2), change of plasma metabolite, fh28 (female rats; day 28, relative to controls): 2.69
Nervonic acid (C24:1), change of plasma metabolite, fh28 (female rats; day 28, relative to controls): 1.46
Palmitic acid (C16:0), change of plasma metabolite, fh28 (female rats; day 28, relative to controls): 1.86
Phosphatidylcholine (C18:0/C18:2), change of plasma metabolite, fh28 (female rats; day 28, relative to controls): 1.23
Sphingolipids (3- and 5-Methoxysphingosine), change of plasma metabolite, fh28 (female rats; day 28, relative to controls): 1.73
Stearic acid (C18:0), change of plasma metabolite, fh28 (female rats; day 28, relative to controls): 1.65
Threonic acid, change of plasma metabolite, fh28 (female rats; day 28, relative to controls): 4.57
Tricosanoic acid (C23:0), change of plasma metabolite, fh28 (female rats; day 28, relative to controls): 1.45
gamma-Linolenic acid (C18:cis[6,9,12]3), change of plasma metabolite, fh28 (female rats; day 28, relative to controls): 2.98
myo-Inositol-2-monophosphate, lipid fraction, change of plasma metabolite, fh28 (female rats; day 28, relative to controls): 1.93
1,2-Dioleoyl-sn-glycero-3-phosphatidyl-L-serine, change of plasma metabolite, mh7 (male rats; day 7, relative to controls): 1.27
Behenic acid (C22:0), change of plasma metabolite, mh7 (male rats; day 7, relative to controls): 1.43
Cholesterol, change of plasma metabolite, mh7 (male rats; day 7, relative to controls): 1.31
Eicosapentanoic acid, change of plasma metabolite, mh7 (male rats; day 7, relative to controls): 1.4
Galactose, lipid fraction, change of plasma metabolite, mh7 (male rats; day 7, relative to controls): 1.37
Lignoceric acid (C24:0), change of plasma metabolite, mh7 (male rats; day 7, relative to controls): 1.32
Nervonic acid (C24:1), change of plasma metabolite, mh7 (male rats; day 7, relative to controls): 1.30
Phosphatidylcholine (C18:0/C18:2), change of plasma metabolite, mh7 (male rats; day 7, relative to controls): 1.01
Phosphatidylcholine (C18:0/C22:6), change of plasma metabolite, mh7 (male rats; day 7, relative to controls): 1.12
Sphingolipids (3- and 5-Methoxysphingosine), change of plasma metabolite, mh7 (male rats; day 7, relative to controls): 1.42
Stearic acid (C18:0), change of plasma metabolite, mh7 (male rats; day 7, relative to controls): 1.34
Threonic acid, change of plasma metabolite, mh7 (male rats; day 7, relative to controls): 3.06
1,2-Dioleoyl-sn-glycero-3-phosphatidyl-L-serine, change of plasma metabolite, mh14 (male rats; day 14, relative to controls): 1.35
Behenic acid (C22:0), change of plasma metabolite, mh14 (male rats; day 14, relative to controls): 1.26
Cholesterol, change of plasma metabolite, mh14 (male rats; day 14, relative to controls): 1.46
Eicosapentanoic acid, change of plasma metabolite, mh14 (male rats; day 14, relative to controls): 1.4
Galactose, lipid fraction, change of plasma metabolite, mh14 (male rats; day 14, relative to controls): 1.37
Lignoceric acid (C24:0), change of plasma metabolite, mh14 (male rats; day 14, relative to controls): 1.16
Nervonic acid (C24:1), change of plasma metabolite, mh14 (male rats; day 14, relative to controls): 1.78
Phosphatidylcholine (C18:0/C18:2), change of plasma metabolite, mh14 (male rats; day 14, relative to controls): 1.11
Phosphatidylcholine (C18:0/C22:6), change of plasma metabolite, mh14 (male rats; day 14, relative to controls): 1.15
Sphingolipids (3- and 5-Methoxysphingosine), change of plasma metabolite, mh14 (male rats; day 14, relative to controls): 1.79
Stearic acid (C18:0), change of plasma metabolite, mh14 (male rats; day 14, relative to controls): 1.25
Threonic acid, change of plasma metabolite, mh14 (male rats; day 14, relative to controls): 2.98
1,2-Dioleoyl-sn-glycero-3-phosphatidyl-L-serine, change of plasma metabolite, mh28 (male rats; day 28, relative to controls): 1.27
Behenic acid (C22:0), change of plasma metabolite, mh28 (male rats; day 28, relative to controls): 1.34
Cholesterol, change of plasma metabolite, mh28 (male rats; day 28, relative to controls): 1.04
Eicosapentanoic acid, change of plasma metabolite, mh28 (male rats; day 28, relative to controls): 1.4
Galactose, lipid fraction, change of plasma metabolite, mh28 (male rats; day 28, relative to controls): 1.51
Lignoceric acid (C24:0), change of plasma metabolite, mh28 (male rats; day 28, relative to controls): 1.21
Nervonic acid (C24:1), change of plasma metabolite, mh28 (male rats; day 28, relative to controls): 1.17
Phosphatidylcholine (C18:0/C18:2), change of plasma metabolite, mh28 (male rats; day 28, relative to controls): 1.10
Phosphatidylcholine (C18:0/C22:6), change of plasma metabolite, mh28 (male rats; day 28, relative to controls): 1.06
Sphingolipids (3- and 5-Methoxysphingosine), change of plasma metabolite, mh28 (male rats; day 28, relative to controls): 1.46
Stearic acid (C18:0), change of plasma metabolite, mh28 (male rats; day 28, relative to controls): 1.05
Threonic acid, change of plasma metabolite, mh28 (male rats; day 28, relative to controls): 3.48

— patent US8808979B2, “Methods related to liver enzyme induction as a predisposition for liver toxicity and diseases or disorders associated therewith” (priority 2008, dated 2014)
